Laboratory results from patent publication US20130251644A1, “Cyclodextrin-Based Microemulsions, and Dermatological Uses Thereof” (PRECISION DERMATOLOGY, INC., priority 2012, published 2013).

Columns and labels:
[1] = cited from earlier work
[2] = Solubility/dispersibility of retinol in the Labrasol-HPGCD-water systems and in water; assay type: physicochemical
Excerpt: Microemulsion preparation: Any two components (examples: Labrasol®-water, HPXCD-water, or Labrasol®-HPXCD) were mixed (in different ratios) in different scintillation vials and then the third component was titrated to each vial until a clear-to-turbid or turbid-to-clear transition occurred (in simple situations). Finally wt % percentages data for each component (Labrasol®, water, and cyclodextrin) were plotted to construct the ternary phase diagram.
Cyclodextrin used: hydroxypropyl-X-cyclodextrin (X=alpha, beta, or gamma).
Any two components (examples: Labrasol®-water, cyclodextrin-water, or Labrasol®-HPBCD) were mixed (in different ratios) in different scintillation vials and then the third component was titrated to each vial until a clear-to-turbid or turbid-to-clear transition occurred (in simple situations). Finally wt % percentages data for each component (Labrosol, water, and cyclodextrin) were plotted to construct the ternary phase diagram.

CC1=C(/C=C/C(C)=C/C=C/C(C)=C/CO)C(C)(C)CCC1 [solid retinol, Retinol]
miscibility in water [1]: immiscible in water
amount of retinol that can be incorporated into the cyclodextrin-based microemulsions ([2]; cyclodextrin-based microemulsion systems): greater than 1.0 wt %
miscibility in Labrasol®-HPGCD-water microemulsion system ([2]; final retinol concentration 1.2%, clear transparent system (vials 8 and 1, FIG. 4(b), 4(c))): complete miscibility
